Here are results for 29 compounds from PMC10763754 (Science Advances, 2021).

The structures appear in SMILES notation. Entries after “also recorded” stand apart in the source; their conditions may differ. A value given as a limit tells only on which side of the number the result lay.

Chain of CDC34A-ubiquitin complex (P49427 whole entry, other chains not shown): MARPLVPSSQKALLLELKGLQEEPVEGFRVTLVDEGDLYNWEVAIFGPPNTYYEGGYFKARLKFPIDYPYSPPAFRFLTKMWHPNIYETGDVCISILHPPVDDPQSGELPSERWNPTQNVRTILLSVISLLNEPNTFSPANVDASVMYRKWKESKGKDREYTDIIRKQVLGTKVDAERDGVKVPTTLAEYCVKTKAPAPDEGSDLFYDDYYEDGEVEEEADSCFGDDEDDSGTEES

The first experiment concerns the target CDC34A-ubiquitin complex (Homo sapiens, UniProt P0CG48+P49427). Nature of the experiment: biochemical. In kind it is binding.
Details: not given
Regarding `COCC(=O)N1CCC(Cc2ccc(-c3cc(Cl)cc(Cl)c3)cc2)(C(=O)NC(C)C)CC1` [2aa], the “fold improvement in TR-FRET potency compared to hit 1” value was 27 fold. As for `COCC(=O)N1CCC(Cc2ccc(-c3cc(Cl)cc(Cl)c3)cc2)(C(=O)O)CC1` [compound 12], the “activity in the TR-FRET assay (in words)” value is reported as “lacked activity”. Turning to `CCNC(=O)C1(Cc2ccc(-c3cc(Cl)cc(Cl)c3)cc2)CCN(C(=O)COC)CC1` [2ab], the “fold improvement in TR-FRET potency compared to hit 1” value is on record as greater than 80 fold. As to `COCC(=O)N1CCC(Cc2ccc(-c3cc(Cl)cc(Cl)c3)cc2)(C(N)=O)CC1` [2ac], the “activity in the TR-FRET assay (in words)” value is “lacked activity”.

As to `COCC(=O)N1CCC(O)(c2ccc(-c3cc(Cl)cc(Cl)c3)cc2)CC1` [compound 6], the “activity in the TR-FRET assay (in words)” value is “completely inactive”. For `CCNC(=O)C1(Cc2ccc(-c3cc(Cl)cc(Cl)c3)cc2)CCN(C(=O)OCC(C)C)CC1` [2db], the “fold increase in TR-FRET potency relative to parent 2ab” value amounted to 10 fold. Consider `Cc1nnc(C2(Cc3ccc(-c4cc(Cl)cc(Cl)c4)cc3)CCN(C(=O)COc3ccccc3)CC2)o1` [4b], for which the “activity in the TR-FRET assay (in words)” value is “abolished activity”.

On to `COCC(=O)N1CCC(Cc2ccc(-c3cccc(C)c3)cc2)(C(=O)NC(C)C)CC1` [compound 1], for which the concentration for a half-maximal effect (EC50) was determined as 327 µM and the “fold worse than CC0651 in the TR-FRET screen assay” value worked out at 10 fold. On to `COCC(=O)N1CCC(Cc2ccc(-c3cc(Cl)cc(Cl)c3)cc2)(C(=O)NC[C@@H](C)O)CC1` [2at], for which the “activity in the TR-FRET assay (in words)” value is recorded as “abrogated activity; also recorded: complete loss of activity”.

As to `COCC(=O)N1CCC(Cc2ccc(-c3cc(Cl)cc(Cl)c3)cc2)(C(=O)NCCO)CC1` [2ai], the “activity in the TR-FRET assay (in words)” value is given as “abrogated activity; also recorded: complete loss of activity”. On to `CCC(=O)NC1(Cc2ccc(-c3cc(Cl)cc(Cl)c3)cc2)CCN(C(=O)COC)CC1` [3b], for which the “activity in the TR-FRET assay (in words)” value was “abolished TR-FRET activity”. Regarding `COCC(=O)N1CCC(Cc2ccc(-c3cc(Cl)cc(Cl)c3)cc2)(NC(C)=O)CC1` [3a], the “activity in the TR-FRET assay (in words)” value is listed as “abolished TR-FRET activity”. For the compound `CCCCCN1CCC(Cc2ccc(-c3cc(Cl)cc(Cl)c3)cc2)(C(=O)OCC)CC1` [compound 7], the “activity in the TR-FRET assay (in words)” value is recorded as “complete abrogation of activity”.

In the case of `COCC(=O)N1CCC(Cc2ccc(-c3cc(Cl)cc(Cl)c3)cc2)(C(=O)NC[C@@H](O)CO)CC1` [2au], the “activity in the TR-FRET assay (in words)” value is given as “abrogated activity; also recorded: complete loss of activity”. For `COCC(=O)N1CCC(Cc2ccc(-c3cc(Cl)cc(Cl)c3)cc2)(c2nnc(C)o2)CC1` [4a], the “activity in the TR-FRET assay (in words)” value is “abolished activity”.

The experiment is the same for the next values; noted with them: TR-FRET EC50.
The compound `COCC(=O)N1CCC(Cc2ccc(-c3cc(Cl)cc(Cl)c3)cc2)(C(=O)NC(C)(C)C)CC1` [2as] yielded a 50% effective concentration (EC50) of 15 µM.

In turn, `COCC(=O)N1CCC(Cc2ccc(-c3cc(Cl)cc(Cl)c3)cc2)(C(=O)N2CCCCC2)CC1` [2aη] had a concentration for a half-maximal effect (EC50) of 1 µM. On to `COCC(=O)N1CCC(Cc2ccc(-c3cc(Cl)cc(Cl)c3)cc2)(C(=O)N2CCOCC2)CC1` [2aζ], for which the EC50 stood at 3 µM. `CCNC(=O)C1(Cc2ccc(-c3cc(Cl)cc(Cl)c3)cc2)CCN(C(=O)[C@@H]2CCCO2)CC1` [2fb] returned a 50% effective concentration (EC50) of 17 to 23 µM. In turn, `COCC(=O)N1CCC(Cc2ccc(-c3cc(Cl)cc(Cl)c3)cc2)(C(=O)NC(C)C)CC1` [2aa] yielded an EC50 of 12 µM. `COCC(=O)N1CCC(Cc2ccc(-c3cc(Cl)cc(Cl)c3)cc2)(C(=O)N2CCCC2)CC1` [2aα] came in with an EC50 of 3 µM. As for `CCNC(=O)C1(Cc2ccc(-c3cc(Cl)cc(Cl)c3)cc2)CCN(C(=O)c2ccccc2)CC1` [2gb], a half-maximal response (EC50) required 2 µM.

With `CCNC(=O)C1(Cc2ccc(-c3cc(Cl)cc(Cl)c3)cc2)CCN(C(=O)COC)CC1` [2ab], the EC50 came to 4 µM. On the same count and under the same terms, the value for `CCNC(=O)C1(Cc2ccc(-c3cc(Cl)cc(Cl)c3)cc2)CCN(C(=O)[C@H]2CCCO2)CC1` [2eb] was 17 to 23 µM; that for `CCCNC(=O)C1(Cc2ccc(-c3cc(Cl)cc(Cl)c3)cc2)CCN(C(=O)COC)CC1` [2ae] was 4 µM.

`CCCCCNC(=O)C1(Cc2ccc(-c3cc(Cl)cc(Cl)c3)cc2)CCN(C(=O)COC)CC1` [2ak] gave an EC50 of 26 µM. On the same count and under the same terms, the figure for `CCNC(=O)C1(Cc2ccc(-c3cc(Cl)cc(Cl)c3)cc2)CCN(C(=O)OCC(C)C)CC1` [2db] is 0.4 µM; for `CCNC(=O)C1(Cc2ccc(-c3cc(Cl)cc(Cl)c3)cc2)CCN(C(=O)CCOC)CC1` [2cb] it is 2 µM. Same read-out and setting: the value for `COCC(=O)N1CCC(Cc2ccc(-c3cc(Cl)cc(Cl)c3)cc2)(C(=O)NCC2CC2)CC1` [2ah] was 7 µM; that for `CNC(=O)C1(Cc2ccc(-c3cc(Cl)cc(Cl)c3)cc2)CCN(C(=O)COC)CC1` [2ad] was 20 µM.

Take `COCC(=O)N1CCC(Cc2ccc(-c3cc(Cl)cc(Cl)c3)cc2)(C(=O)NC2CC2)CC1` [2al]: the EC50 turned out to be 5 µM.

The target in another experiment is CDC34A (Homo sapiens, UniProt P0CG48+P49427).
Chain of CDC34A (P49427 whole entry, other chains not shown): as above
Test: not given
The following applies: cited from earlier work.
Consider `COCC(=O)N[C@@H](Cc1ccc(-c2cc(Cl)cc(Cl)c2)cc1)[C@H](O)[C@@H](O)C(=O)O` [CC0651], for which the “potency of CC0651 in vitro” value is ~ 5 μM.

One may read the EC50 as the concentration giving half of the maximal effect. A lower EC50 goes with an effect from little substance.
